Data set [1] can be described thus: Solubilities of S-curcumin and C3-complex curcumin in different organic solvents. In kind it is physicochemical. As to conditions: for solubility: organic solvent or mixture, read-out: Conc. (solubility). The source says: Comparison of PLGA C3-complex-curcumin vs PLGA S-curcumin indicated the following differences. The solubilities of 99.2% S-Curcumin in all four solvents. […] This confers improved manufacturing capability, and attributes to different pharmacokinetics and pharmacodynamics in in vivo settings (Table 1). [table]

Data set [2] has as its system breast cancer cell line MCF10ACA1H. Nature of the data set: Scratch assay (wound healing) in MCF10ACA1H. In kind it is cell-based, human. Particulars: 12 hour exposure.

The structures appear in SMILES notation. Converted amounts (≈) assume the structure as drawn. Like-named read-outs stand apart in the source and are kept apart here.

A word on the solubility: it is the concentration that dissolves in the medium under given conditions. Regarding `COc1cc(C=CC(=O)CC(=O)C=Cc2ccc(O)c(OC)c2)ccc1O` [S-curcumin, 1,7-bis(4-hydroxy-3-methoxyphenyl)-1,6-heptadiene-3,5-dione], the “Solubility compared with C3 complex” value in data set [1] (normalized to equal concentrations, ethanol, ethyl acetate, acetone, acetonitrile) was “greater solubility”. Also, the solubility in data set [1] (solvent acetone) amounted to 42300 µg/mL (≈ 115 mM); in data set [1] (solvent acetonitrile), 5440 µg/mL (≈ 14.8 mM); in data set [1] (solvent ethanol) it was 3800 µg/mL (≈ 10.3 mM); in data set [1] (solvent ethyl acetate), 10400 µg/mL (≈ 28.2 mM). The “1 g of solvent solubilize in solvent” value in data set [1] (solvent acetone) was found to be 23.6 mL; in data set [1] (solvent acetonitrile), 184 mL; in data set [1] (solvent ethanol), 263 mL; in data set [1] (solvent ethyl acetate), 96.2 mL. The “Physical appearance of solubility” value in data set [1] (solvent acetone) is “Fully”; in data set [1] (solvent acetonitrile) it was “Partial”; in data set [1] (solvent ethanol), “Partial”; in data set [1] (solvent ethyl acetate), “Partial”. For the same compound, the “More effective than C3-curcumin in interfering with wound healing” value in data set [2] stood at 30%.
